What was measured:
[1] = tested on: mouse pancreatic β cell line MIN6; assay: Promotion of insulin secretion from MIN6 (insulin immunoassay); assay type: cell-based; conditions: MIN6, KRBH with 22 mM glucose, 90 min
Procedure: (§1) Mouse pancreatic β cell line MIN6 cultured in a flask was detached with PBS containing 2.5 mM EDTA, and seeded and incubated in a 96 well plate for 2 days. The medium used was obtained by adding 15% fetal bovine serum (ThermoTrace), […] 2-mercaptoethanol (Invitrogen), 20 mM HEPES pH 7.3, 100 U/ml penicillin and 100 μg/ml streptomycin to Dulbecco's Modified Eagle Medium (DMEM, Invitrogen) containing 4.5 g/l of glucose. The cells were washed twice with modified Krebs-Ringer bicarbonate buffer (KRBH, 116 mM NaCl, 4.7 mM KCl, 1.2 mM KH2PO4, 1.2 mM MgSO4, 2.5 mM CaCl2, 25 mM NaHCO3, 24 mM HEPES pH 7.3) and preincubated at 37° C. under 5% CO2 conditions for 30 min. Fatty acid diluted and prepared with a buffer obtained by adding 22 mM glucose to the above-mentioned KRBH was added to the cell after preincubation and the cells were incubated at 37° C. under 5% CO2 conditions for 90 min. After incubation, the cell supernatant was recovered and cryopreserved. The insulin content of the supernatant was measured using a commercially available insulin immunoassay kit (Amersham Pharmacia Biotech).
as §1, with “(KBH,” for “(KRBH,”, “The compound” for “Fatty acid”

Male SD rats = assay: In vivo insulin secretion promoting effect and hypoglycemic action, oral glucose tolerance test; parameters: species or system rat; conditions: 30 mg/kg oral, glucose 2 g/kg oral 30 min after administration, Williams test p<=0.025
Procedure: Male SD rats (CLEA Japan, Inc, 7-week-old) were fasted for one day, and divided into groups (6 per group) based on blood glucose level and body weight. A suspension of the compound of Example 41 in 0.5% methyl cellulose was orally administered at the dose of 30 mg/kg and glucose (2 g/kg) was orally loaded at 30 min after administration. Only 0.5% methyl cellulose was administered to the control group, and similarly loaded with glucose. Plasma was taken before glucose tolerance test, and 7, 30 and 60 minutes after glucose tolerance test, and the blood glucose level and insulin concentration were measured. The blood glucose level was measured by HITACHI autoanalyzer 7070, and insulin was measured by radioimmunoassay ([^125L] Sionoria insulin, Shionogi & Co., Ltd.).

human GPR40 = molecular target: T1, human GPR40 (Homo sapiens, UniProt O14842); assay: Effect of regulation of GPR40 receptor function (agonistic effect), intracellular calcium by FLIPR; assay type: cell-based; conditions: CHO cell line (No. 104) expressing human GPR40, fluorescence intensity at 30 sec after start of reaction
T1 construct: expressed in transfected cells; host or cells: CHO cell line CHO-hGPR40 No. 104 (pAKKO-111 vector)
T1 sequence (O14842 whole entry): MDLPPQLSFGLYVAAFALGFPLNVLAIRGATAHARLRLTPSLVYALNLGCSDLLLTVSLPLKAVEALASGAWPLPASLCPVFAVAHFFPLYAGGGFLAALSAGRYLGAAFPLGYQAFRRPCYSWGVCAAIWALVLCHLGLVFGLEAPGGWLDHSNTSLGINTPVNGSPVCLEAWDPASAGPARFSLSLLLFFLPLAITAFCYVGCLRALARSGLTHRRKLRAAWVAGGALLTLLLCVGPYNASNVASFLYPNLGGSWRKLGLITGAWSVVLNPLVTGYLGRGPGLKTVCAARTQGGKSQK
Procedure: CHO cell line (No. 104) made to express human GPR40 was diluted such that 3×10^4 cells/100 μL were contained, dispensed to a black walled 96-well plate (Costar) at 100 μL per well, and incubated overnight in a CO2 incubator. The changes in the intracellular calcium concentration were measured using FLIPR (Molecular Device). The method is described in the following.
Fluo-3AM (DOJIN) (50 μg) was dissolved in 21 μl DMSO (DOJIN), and an equal amount of 20% pluronic acid (Molecular Probes) was added and mixed, and the mixture was added to 10.6 ml of an assay buffer [prepared by adding 20 ml of 1M HEPES (pH 7.4) (DOJIN) to 1 L of HBSS (Invitrogen), and adding a mixed solution (10 ml) obtained by dissolving probenecid (Sigma) (710 mg) in 1N NaOH (5 ml) and adding and mixing with the above-mentioned HBSS/HEPES solution (5 ml)] supplemented with 105 μl of fetal calf serum to give a fluorescence dye solution. The medium in the cell plate was removed, a fluorescence dye solution was immediately dispensed at 100 μl per well, and incubated in a CO2 incubator for 1 hr to incorporate fluorescence dye into the cell. The incubated cells were washed with the above-mentioned assay buffer. The compound to be added to the cell was diluted with the assay buffer to each concentration and dispensed to a test sample plate. After the above-mentioned pretreatment, changes in the intracellular calcium concentration after addition of the compound was measured by FLIPR, and the agonistic effect was examined. EC50 value was calculated from a dose response curve based on the changes in the fluorescence intensity value at 30 sec after the start of the reaction.

O=C(O)CCc1ccc(O[C@@H]2CCc3ccccc32)cc1 [Example 41, (R)-4-[(2,3-dihydro-1H-inden-1-yl)oxy]benzenepropanoic acid]
insulin secretion enhancing activity [1]: significant insulin secretion enhancing activity | increase in insulin versus control group (Male SD rats; at 7 minutes after glucose tolerance test): significantly greater increase in insulin | increase in blood glucose level versus control group (Male SD rats; at 30 minutes after glucose tolerance test): significantly suppressed increase in the blood glucose level | EC50 (human GPR40): 0.055 µM

— US7960369B2, “Receptor function regulator” (Takeda Pharmaceutical Company Limited, priority 2002, dated 2011)
